Data on 31 molecules can be found in ChEMBL document CHEMBL1149799, “Bioactive peroxides as potential therapeutic agents” (Eur J Med Chem, 2008).

pIC50: −log10 of the molar value. ≈ marks a conversion by molar mass, not a printed value.

The subject of test [1] is P388. Put plainly: Cytotoxicity against mouse P388 cells. The class given is functional, cell-based. The conditions noted are these: for IC50 / EC50: Mus musculus, P388; for EC50: read-out: ED50 (the source's name).
In test [2] the test system is A549. Put plainly: Cytotoxicity against human A549 cells. The class given is functional, cell-based. The conditions noted are these: for IC50 / EC50: Homo sapiens, A549; for EC50: read-out: ED50 (the source's name).
Test [3] concerns HT-29. In words: Cytotoxicity against human HT29 cells. The class given is functional, cell-based. The conditions noted are these: for IC50 / EC50: Homo sapiens, HT-29; for EC50: read-out: ED50 (the source's name).
Test [4] has as its system KB. In words: Cytotoxicity against human KB cells. The class given is functional, cell-based. The conditions noted are these: for EC50: read-out: ED50 (the source's name).
Test [5] is described as follows: Cytotoxicity against mouse Ehrlich Ascites carcinoma by trypan blue exclusion assay. The class given is functional.
Test [6] relates to DU-145. In words: Cytotoxicity against human DU145 cells. In kind it is functional, cell-based. The conditions noted are these: Homo sapiens, DU-145.
Test [7] deals with L1210. In words: Cytotoxicity against mouse L1210 cells. In kind it is functional, cell-based.

One may read the IC50 as the concentration that inhibits the measured activity by half. Low readings indicate higher potency, high ones lower potency. Consider `CC/C=C/C(CC)CC(C)CC1(CC)C=C(CC)C(CC(=O)OC)OO1` (stereo unspecified), for which the IC50 in test [1] amounted to 0.055 µg/mL (≈ 0.15 µM).
In turn, `COc1cccc2c1C(=O)c1c(O)c3c(c(O)c1C2=O)C[C@@](O)(C(=O)CO)C[C@@H]3O[C@H]1C[C@H](N)[C@H](O)[C@H](C)O1` [DOXORUBICIN] displayed an IC50 in test [2] of 0.002 µg/mL (≈ 0.00368 µM).
In turn, `C=C1C(=O)O[C@H]2C[C@](C)(O)CCC[C@](C)(OO)C/C=C/[C@@]3(C)O[C@H]3C[C@@H]12` returned an IC50 in test [1] of 0.1 µg/mL (≈ 0.273 µM).
Take `C=C(CCC[C@@]1(C)CC[C@H]([C@H](C)C(=O)OC)OO1)CCC1(O)C(=C)CCCC1(C)C` (stereo partly specified) [TASNEMOXIDE C]: the IC50 in test [2], in test [1] and in test [3] was greater than 1 µg/mL throughout.
As for `C[C@H](C/C=C/C(C)(C)OO)[C@H]1CC[C@H]2[C@@H]3C[C@@H](O)C4=CC(=O)CC[C@]4(C)[C@H]3CC[C@]12C`, the EC50 in test [4] (Homo sapiens, KB) amounted to 0.4 µg/mL (≈ 0.929 µM); in test [2] it was 1 µg/mL (≈ 2.32 µM); in test [1], 0.28 µg/mL (≈ 0.65 µM); in test [3] it was 0.63 µg/mL (≈ 1.46 µM).
For `CC1=C(CCC(C)(O)/C=C/C[C@@]2(C)CC[C@H]([C@H](C)C(=O)O)OO2)C(C)(C)CCC1` (stereo partly specified) [TASNEMOXIDE A], the half-inhibitory concentration (IC50) in test [2], in test [1] and in test [3] was greater than 1 µg/mL in each case.
By pIC50 is commonly meant the IC50 on a negative log10 scale, so that one unit is a factor of ten. Lower therefore signals a large IC50. For orientation: IC80 means the concentration at which the effect reaches the 80% level. Low values mean greater potency, high ones weaker potency. In test [5], `CC(=O)[C@@H]1CC[C@@H](C)[C@@H]2CC[C@]3(C)OO[C@@]12C(=O)O3` showed a pIC50 of less than 3.76 and an IC80 greater than 175000 nM.
For the molecule `CC(C)[C@@H](C)C1CC1[C@@H](C)[C@H]1CC[C@@H]2[C@]1(C)CC[C@H]1[C@]23C=C[C@]2(C[C@@H](O)CC[C@]12C)OO3` (stereo partly specified), the Activity is 2.1 µg/mL in test [4], 2.7 µg/mL in test [2], 0.4 µg/mL in test [1] and 1.4 µg/mL in test [3].
In the case of `C/C=C/C=C/CCCCCCCCCCC[C@]1(OC)C=C[C@H](CC(=O)OC)OO1`, the EC50 in test [1] was greater than 10 µg/mL.
Consider `C=CCCC/C=C/C=C\CCCCCCCC[C@@H]1CC[C@@H]([C@@H]2CC[C@@H](CC(=O)[O-])OO2)O1.[Na+]`, for which the half-inhibitory concentration (IC50) in test [2] amounted to 0.1 µg/mL; in test [1], 0.01 µg/mL; in test [3], 0.1 µg/mL; in test [6] it was 0.1 µg/mL.
As for `C=C(CCCC(C)(C)O)C(=O)CC[C@@]1(C)CC[C@@H]([C@H](C)C(=O)OC)OO1` [AIKUPIKOXIDE D], the IC50 in test [2], in test [1] and in test [3] was greater than 1 µg/mL in each case.
In test [5], `C[C@@H]1CCC2[C@@H](C)[C@H](O[C@@H]3O[C@H]4O[C@@]5(C)CC[C@@H]6[C@@H](C)CCC([C@@H]3C)[C@]46OO5)O[C@@H]3O[C@]4(C)CC[C@@H]1[C@@]23OO4` (stereo partly specified) showed a negative-log IC50 (pIC50) of 5.85 and an IC80 of 2400 nM.
As for `C=CC(CC[C@@H](C)[C@H]1CC[C@H]2[C@@H]3C[C@@H](O)C4=CC(=O)CC[C@]4(C)[C@H]3CC[C@]12C)(OO)C(C)C` (stereo partly specified), the EC50 in test [4] (Homo sapiens, KB) is 1.8 µg/mL (≈ 3.92 µM); in test [2] it was 0.64 µg/mL (≈ 1.4 µM); in test [1], 0.4 µg/mL (≈ 0.872 µM); in test [3], 0.43 µg/mL (≈ 0.937 µM).
For `CCCCCCCC/C=C/C(=O)O[C@@H]1[C@@H](C)[C@@]2(O)[C@H]([C@@H]3C(C)(C)[C@]13OC(C)=O)[C@@H](OO)C(CO)=C[C@]1(O)C(=O)C(C)=C[C@@H]21` [OSTODIN], the EC50 is no more than 4000 µg/mL in test [4] (Homo sapiens, KB) and no more than 4000 µg/mL in test [1].
In the case of `C/C=C/C=C/CCCCCCCCCCCCC[C@]1(OC)C=C[C@@H](CC(=O)OC)OO1` [XESTIN A], in test [1], the IC50 amounted to 0.3 µg/mL (≈ 0.687 µM).
For `C[C@H](C/C=C/C(C)(C)OO)[C@H]1CC[C@H]2[C@@H]3CC(=O)C4=CC(=O)CC[C@]4(C)[C@H]3CC[C@]12C`, the EC50 stood at 1.15 µg/mL (≈ 2.68 µM) in test [4] (Homo sapiens, KB); 0.88 µg/mL (≈ 2.05 µM) in test [2]; 0.53 µg/mL (≈ 1.24 µM) in test [1]; 1.48 µg/mL (≈ 3.45 µM) in test [3].
Take `COC(=O)C[C@@]1(C)C[C@](C)(CC(C)CCCCCCCCc2ccccc2)OO1` (stereo partly specified) [EPIPLAKINIC ACID E]: the IC50 in test [2] amounted to 2.5 µg/mL (≈ 6.18 µM); in test [1] it was 2 µg/mL (≈ 4.94 µM).
With `C/C1=C\CC[C@]2(C)O[C@H]([C@@H]3OC(=O)[C@]4(OO)CCO[C@@H]2C[C@H]34)[C@H](C)CCC1` [PLANAXOOL], in test [7], the IC100 worked out at 2.4 µg/mL.
`C=C1CCCC(C)(C)C1(O)CC[C@@]1(C)CC[C@@H]([C@H](C)C(=O)OC)OO1` (stereo partly specified) [AIKUPIKOXIDE B]: the IC50 in test [2], in test [1] and in test [3] was greater than 1 µg/mL throughout.
In the case of `C=CC(CC[C@@H](C)[C@H]1CC[C@H]2[C@@H]3CC(=O)C4=CC(=O)CC[C@]4(C)[C@H]3CC[C@]12C)(OO)C(C)C` (stereo partly specified), the EC50 was 4 µg/mL (≈ 8.76 µM) in test [4] (Homo sapiens, KB); 2.5 µg/mL (≈ 5.47 µM) in test [2]; 0.8 µg/mL (≈ 1.75 µM) in test [1]; 1.4 µg/mL (≈ 3.07 µM) in test [3].
In test [4] (Homo sapiens, KB), `CC(C)(O)/C=C/C[C@@](C)(O)[C@H]1CC[C@@](C)([C@H]2CC[C@H]([C@]3(C)CC[C@H]([C@](C)(O)C/C=C/C(C)(C)OO)O3)O2)O1` registered an IC50 of 5.3 µg/mL (≈ 9.8 µM).
Regarding `CC(=O)CCCC(C)(C)C(=O)CC/C(C)=C/CC[C@@]1(C)CC[C@H]([C@H](C)C(=O)O)OO1` [AIKUPIKOXIDE A], the IC50 in test [2], in test [1] and in test [3] was greater than 1 µg/mL each time.
Turning to `C=C(C)C(CC[C@@H](C)[C@H]1CC[C@H]2[C@@H]3CC=C4C[C@@H](O)CC[C@]4(C)[C@H]3CC[C@]12C)OO` (stereo partly specified), the EC50 was found to be 0.33 µg/mL (≈ 0.792 µM) in test [4] (Homo sapiens, KB); 0.64 µg/mL (≈ 1.54 µM) in test [2]; 0.26 µg/mL (≈ 0.624 µM) in test [1]; 0.43 µg/mL (≈ 1.03 µM) in test [3].
On to `C=C(C)C(CC[C@@H](C)[C@H]1CC[C@H]2[C@@H]3CC(=O)C4=CC(=O)CC[C@]4(C)[C@H]3CC[C@]12C)OO` (stereo partly specified), for which the EC50 was 1.15 µg/mL (≈ 2.68 µM) in test [4] (Homo sapiens, KB); 0.88 µg/mL (≈ 2.05 µM) in test [2]; 0.53 µg/mL (≈ 1.24 µM) in test [1]; 1.48 µg/mL (≈ 3.45 µM) in test [3].
Take `C=C1C(=O)O[C@H]2[C@H]1[C@H](OC(C)=O)CC(=C)[C@H](OO)CC[C@@]1(C)O[C@H]21` [PEROXYFEROLIDE]: the EC50 in test [4] (Homo sapiens, KB) came out at 0.29 µg/mL (≈ 0.857 µM).
As to `C/C=C/C=C/CCCCCCCCCCCCC[C@@]1(OC)C=C[C@@H](CC(=O)OC)OO1` [XESTIN B], in test [1], the half-maximal inhibitory concentration (IC50) amounted to 3 µg/mL (≈ 6.87 µM).
With `COC(=O)[C@@H](C)[C@@H]1CC[C@](C)(CCC(=O)C(C)(C)CCCC(C)=O)OO1` [DIACARPEROXIDE B], the IC50 in test [2], in test [1] and in test [3] was greater than 1 µg/mL throughout.
For `C=C1CC[C@H](OO)C(=C)CCC2=C(C(C)C)C(=O)C[C@]2(C)CC1=O`, the values for the EC50 in test [2], in test [1] and in test [3] were 0.56 µg/mL (≈ 1.68 µM), 0.052 µg/mL (≈ 0.156 µM) and 0.31 µg/mL (≈ 0.932 µM), respectively.
Turning to `C=C(C)C(CC[C@@H](C)[C@H]1CC[C@H]2[C@@H]3C[C@@H](O)C4=CC(=O)CC[C@]4(C)[C@H]3CC[C@]12C)OO` (stereo partly specified), the EC50 in test [4] (Homo sapiens, KB) was determined as 0.79 µg/mL (≈ 1.83 µM); in test [2] it was 0.58 µg/mL (≈ 1.35 µM); in test [1], 0.22 µg/mL (≈ 0.511 µM); in test [3] it was 0.47 µg/mL (≈ 1.09 µM).
For `C=C(CCC1=C(C)CCCC1(C)C)C(O)CC[C@@]1(C)CC[C@H]([C@H](C)C(=O)O)OO1` (stereo partly specified) [TASNEMOXIDE B], the half-inhibitory concentration (IC50) in test [2], in test [1] and in test [3] was greater than 1 µg/mL in each case.
Take `C[C@H](C/C=C/C(C)(C)OO)[C@H]1CC[C@H]2[C@@H]3CC=C4C[C@@H](O)CC[C@]4(C)[C@H]3CC[C@]12C`: the EC50 turned out to be 1.41 µg/mL (≈ 3.38 µM) in test [4] (Homo sapiens, KB); 1.68 µg/mL (≈ 4.03 µM) in test [2]; 0.22 µg/mL (≈ 0.528 µM) in test [1]; 1.27 µg/mL (≈ 3.05 µM) in test [3].
